# How the values were obtained:
# [1] = system: Bax; experiment: ELISA of Bax in mouse hippocampus after Aβ25-35; format: in vivo, souris
# From the text: Le 1^er jour : une version « mélangée » (scrambled) du peptide amyloïde β25-35 (Sc.Aβ, témoin négatif) ou le peptide amyloïde β25-35 (Aβ25-35) est injecté par voie intra-cérébroventriculaire (ICV) (le peptide Aβ25-35 provoque l'intoxication cellulaire). Entre le 1^er jour et le 10^ème jour, les traitements sont administrés une fois par jour par voie intrapéritonéale (IP).
# A la fin de la session de rétention d'évitement passif, le 10^ème jour, les animaux sont sacrifiés par décapitation. L'hippocampe et le cortex frontal sont disséqués et congelés dans l'azote liquide. L'hippocampe est utilisé pour mesurer le taux de peroxydation lipidique à l'aide d'une méthode colorimétrique et pour évaluer les taux de 4 marqueurs biochimiques par des tests ELISA. Le cortex est conservé à -80°C en attente d'analyses supplémentaires. Les plasmas sont également conservés en attente d'analyses supplémentaires. Les échantillons biologiques sont jetés après 3 mois.
# Pour tous les dosages, les […] sont homogénéisés, après décongélation, dans un tampon Tris (Tris 50 mM, 150 mM NaCl, pH 7,5) et traités par ultrasons pendant 20 secondes. […] Pour chaque dosage, l'absorbance est lue à 450 nm et la concentration est calculée en utilisant la courbe standard. Les résultats sont exprimés en pg ou ng de marqueur par mg de tissu et en pourcentage de solution Sc.Aβ + véhicule. 6 échantillons par groupe (n = 36 kits ELISA) sont dosés en double.
# [2] = system: neurones corticaux; experiment: Oxidative stress (MetO-positive neurons) in cortical neurons after Aβ1-42; format: cell-based, rats; conditions: Rattus norvegicus, Cortical neurone, Aβ1-42 1,25 µM, 4 h (Aβ1-42 alone 136.98%), read-out: nombre de neurones positifs à MetO
# Protocol: Des neurones corticaux de rats sont mis en culture comme dans la méthode décrite par Singer (1999) J. Neurosci. 19:2455-2463. Des rats femelles enceintes de 15 jours sont tuées par dislocation des cervicales (Rats Wistar, Janvier) et le fœtus est retiré de l'utérus. Les cortex sont prélevés et placés dans un milieu glacé de Leibovitz (L15, Panbiotech, Réf : P04-27055, lot : 9310614) contenant 2% de pénicilline (10 000 U/ml) et de streptomycine (10 mg/ml) (PS, Panbiotec, Réf : P06-07100, lot : 48101114) et 1% de sérum-albumine bovine (BSA, Panbiotech, Réf : P06-1391100, lot : H140603). Les cortex sont dissociés par trypsination (0,05% Panbiotech, Réf : P10-023100, lot : 5890314) pendant 20 minutes à 37°C. La réaction est stoppée par addition d'un milieu Eagle modifié de Dulbecco (DMEM, Panbiotech, réf P04-03600, lot : 9670913) contenant de la DNase I grade Il (0,1 mg/ml Panbiotech, Réf : P60-37780100, lot : H140508) et 10 % de sérum de veau fœtal (FCS, Invitrogen, Réf : 10270 à 098, lot : 41Q4120K). Les cellules sont dissociées mécaniquement par 3 passages à travers une pipette de 10 ml. Les cellules sont ensuite centrifugées à 515 g pendant 10 minutes à 4°C. […]
structure (smiles),measurement,setting,value
"CCNC1=Nc2ccc(Cl)cc2C(C)(c2ccccc2)O1 (centres unmarked) [Etifoxine, chlorhydratede 6-chloro-2-éthylamino-4-méthyl-4-phényl-4H-[3,1]benzoxazine]",Taux de protéine Bax,[1]; Aβ25-35/Etifoxine 12.5 mg/kg IP,"180,1 ± 7,4 % de Sc.Aβ/V"
same,Taux de protéine Bax,[1]; Aβ25-35/Etifoxine 25 mg/kg IP,"132,6± 7,5 % de Sc.Aβ/V"
same,Taux de protéine Bax,[1]; Aβ25-35/Etifoxine 50 mg/kg IP,"99,9 ± 4,2 % de Sc.Aβ/V"
same,activity at 3 µM,[2]; étifoxine 3 µM,108%
same,activity at 10 µM,[2]; étifoxine 10 µM,103%

# — patent EP3454861B1, “BENZOXAZINE OR QUINAZOLINE DERIVATIVES FOR USE IN THE TREATMENT OF ALZHEIMER'S DISEASE” (Biocodex, priority 2016, dated 2017)
